# In patent publication US20220193063A1, “METABOLITES OF GLP1R AGONISTS” (Pfizer Inc., priority 2020, published 2022):
# Assays:
# [1] = test system: mixed-gender cryopreserved human hepatocytes; test: In vitro metabolism of Compound 1 in human cryopreserved hepatocytes; format: in vitro ADME; details: 10 μM Compound 1, 7.5×10^5 cells/mL, 1 and 4 hrs composite sample, HPLC/UV/MS
# Description: (§1) Male CD-1 mouse hepatocytes (lot YHL), male Wistar-Han rat hepatocytes (Celsis; product number: M000065; lot: SLA), female New Zealand rabbit hepatocytes (lot 1510147), male cryopreserved cynomolgus monkey hepatocytes (Celsis; product number: M00305; lot: DNB) and mixed-gender cryopreserved human hepatocytes (Bioreclamation; product number: S01988; lot: DCM) were obtained for the hepatocyte in-vitro assessments.
# (§2) At time 0 hrs 550 μL aliquots were removed from incubations and quenched with 5 volumes of ACN containing 0.1% formic acid. At 1 and 4 hrs, 275 μL aliquots were removed and quenched as above; these were combined in the same tube to prepare a composite sample. For all hepatocyte experiments, samples were processed by centrifugation at 1900×g for 5 minutes, and then the supernatant was transferred to clean glass tubes and evaporated to dryness under a stream of N2 using a Turbovap at 37° C. Sample residues were reconstituted in mobile phase prior to analysis by HPLC/UV/MS^n.
# (§3) Samples were analyzed by HPLC/UV/MS^n using a Thermo Orbitrap Elite mass spectrometer in conjunction with a Thermo Open Accela UHPLC system. A 3.0×150 mm, 2.5 μm Acquity CSH C18 HPLC column (Waters) was heated to 45° C. for separation of analytes. The mobile phase was a gradient of A): water containing 0.1% formic acid, and B): acetonitrile. The flow rate was 450 μL/min, and the following gradient program was utilized: […]
# (§4) UV absorbance was monitored with a photo-diode array detector from 220-450 nm. The mass spectrometer was operated in positive-ion mode with a HESI ion source at a potential of 3.0 kV, and capillary and source heater temperatures of 380 and 300° C., respectively. Sheath, auxiliary, and sweep gas flows were set to 45, 10, and 2 units, respectively. Full scan mass spectra were acquired over the range 120-1200 m/z at a resolving power of 30,000 (specified at m/z 400). Data-dependent MS^n spectra were acquired in an automated fashion at 15,000 resolving power using CID and HCD fragmentation with normalized collision energy settings of 28 and 65 V, respectively.
# (§5) Metabolites were characterized by comparisons of mass spectral fragmentation patterns with that of a Compound 1 standard. All HPLC/UV/MS^n data were processed using Xcalibur v. 2.2, and integrated UV peak areas were subjected to weighted UV binning procedures utilizing an Excel template.
# [2] = test system: male cryopreserved cynomolgus monkey hepatocytes; test: In vitro metabolism of Compound 1 in monkey cryopreserved hepatocytes; format: in vitro ADME; details: 10 μM Compound 1, 7.5×10^5 cells/mL, 1 and 4 hrs composite sample, HPLC/UV/MS
# Description: as §1, §2, §3, §4, §5
# [3] = Circulating metabolites of Compound 1 in rat plasma following a 1.0 mg/kg IV bolus dose; format: in vivo; details: 1.0 mg/kg IV bolus dose of Compound 1, pooled plasma 0.033-24 hrs, male rats
# Description: (§6) Plasma and bile samples were obtained from a bile duct cannulated rat experiment (Study PK-0111) in which a 1.0 mg/kg IV bolus dose was administered to fed male rats (N=3). No control plasma was available from this experiment.
# Clin Pharmacol Ther 1981; 29(3):408-13]. The entire volume of each replicate Hamilton pool was combined to create a single pooled sample (576 μL) for analysis.
# (§7) Pooled plasma and bile samples were extracted with ACN containing 0.1% formic acid, and after centrifugation at 1900×g, the supernatant was transferred to clean tubes and evaporated under N2 in a Turbovap set at 37° C. Residues were reconstituted in mobile phase (5:95 v:v ACN:0.1% aqueous formic acid) prior to analysis by HPLC/UV/MS^n.
# as §3, §4, §5
# [4] = test system: male Wistar-Han rat hepatocytes; test: In vitro metabolism of Compound 1 in rat cryopreserved hepatocytes; format: in vitro ADME; details: 10 μM Compound 1, 7.5×10^5 cells/mL, 1 and 4 hrs composite sample, HPLC/UV/MS
# Description: as §1, §2, §3, §4, §5
# [5] = Metabolites of Compound 1 in rat bile following a 1.0 mg/kg IV bolus dose (bile duct cannulated rat); format: in vivo; details: 1.0 mg/kg IV bolus dose of Compound 1, pooled bile 0-24 hrs, bile duct cannulated male rats
# Description: as §6
# Bile samples (0-3, 3-7, and 7-24 hrs) from individual animals were pooled in proportion to the amount collect in each interval. Then 0.5 mL of each individual pool was combined to prepare a composite sample for analysis.
# as §7, §3, §4, §5
# [6] = test system: Male CD-1 mouse hepatocytes; test: In vitro metabolism of Compound 1 in mouse cryopreserved hepatocytes; format: in vitro ADME; details: 10 μM Compound 1, 7.5×10^5 cells/mL, 1 and 4 hrs composite sample, HPLC/UV/MS
# Description: as §1, §2, §3, §4, §5
# [7] = test system: female New Zealand rabbit hepatocytes; test: In vitro metabolism of Compound 1 in rabbit cryopreserved hepatocytes; format: in vitro ADME; details: 10 μM Compound 1, 7.5×10^5 cells/mL, 1 and 4 hrs composite sample, HPLC/UV/MS
# Description: as §1, §2, §3, §4, §5
# [8] = test system: human co-cultured hepatocytes (Hepatopack); test: In vitro metabolism of Compound 1 in human micropatterned co-cultured hepatocytes (Hepatopack); format: in vitro ADME; details: Compound 1 tris salt 20 μM, human MPCC hepatocytes, 0, 2 and 7 days
# Text: Micro-patterned co-cultured (MPCC) hepatocyte 24-well plates containing human donors (16 wells each) were provided by Ascendance Biotechnology (formerly Hepregen Corp. (Medford, Mass.). [see Wang W W W, Khetani S R, Krzyzewski S, et al. Assessment of a Micropatterned Hepatocyte Coculture System to Generate Major Human Excretory and Circulating Drug Metabolites. Drug Metab Dispos 2010; 38(10):1900-51 The MPCCs were created at Ascendance Biotechnology and maintained in serum containing medium for 5-6 days to allow for stabilization of the co-cultures prior to shipment. A mixed-gender cryopreserved pool of 10 human donors (X008001-P; lot YFA) was used to seed the plates and was purchased from BioreclamationlVT (Westbury, N.Y.). MPCC hepatocytes are plated with fibroblasts in a 1:3 ratio with ˜25,000 hepatocytes/well in a 24-well plate. 24-Well MPCC plates were shipped to Pfizer, fresh medium (400 μL/well) was applied and cultures were kept at 37° C. with […] and 95% relative humidity for two days. Micropatterned co-cultures containing pooled hepatocytes were allowed 7 days to fully stabilize with respect to liver-specific functions. […] At respective time points (0, 2, and 7 days), the culture medium was removed and mixed with 4 volumes of ACN, then stored frozen at −40° C. until samples could be analyzed. Samples were subsequently processed by the addition of 2.5 mL of 1:1 ACN:MeOH containing 0.1% formic acid. After vortexing, the samples were centrifuged at 1900×g for 5 min, then the supernatant was transferred to 15 mL conical tubes and evaporated under N2 using a Turbovap set at 37° C. The residues were reconstituted in mobile phase (5:95 v:v ACN:0.1% aqueous formic acid) prior to analysis by HPLC/UV/MS^n.
# as §3
# UV absorbance was monitored with a photo-diode array detector from 220-450 nm. The mass spectrometer was operated in positive-ion mode with a HESI ion source at a potential of 3.0 kV, and capillary and source heater temperatures of 380 and 300° C., respectively. Sheath, auxiliary, and sweep gas flows were set to 45, 10, and 2 units, respectively. Full scan mass spectra were acquired over the range 120-1200 m/z at a resolving power of 30,000 (specified at m/z 400). […]
# [9] = target: human GLP-1R (Homo sapiens, UniProt P43220, L260F); test: CHO GLP-1R Clone C6 - Assay 2 (HTRF cAMP agonist assay, low receptor density)
# Chain of human GLP-1R (P43220 24-463 L260F): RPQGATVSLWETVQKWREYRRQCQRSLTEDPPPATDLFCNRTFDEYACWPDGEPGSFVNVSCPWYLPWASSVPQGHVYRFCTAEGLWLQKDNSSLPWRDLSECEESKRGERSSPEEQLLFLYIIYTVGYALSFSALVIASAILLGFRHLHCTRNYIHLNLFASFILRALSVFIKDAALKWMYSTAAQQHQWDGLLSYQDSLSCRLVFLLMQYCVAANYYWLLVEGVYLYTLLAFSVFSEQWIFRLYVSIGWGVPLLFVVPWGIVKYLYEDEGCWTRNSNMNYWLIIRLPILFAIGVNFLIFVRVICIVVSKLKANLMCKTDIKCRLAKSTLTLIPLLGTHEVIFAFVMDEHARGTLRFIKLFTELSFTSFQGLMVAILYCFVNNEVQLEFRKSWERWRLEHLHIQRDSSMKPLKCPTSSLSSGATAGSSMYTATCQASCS
# Description: GLP-1R-mediated agonist activity was determined with a cell-based functional assay utilizing an HTRF (Homogeneous Time-Resolved Fluorescence) cAMP detection kit (cAMP HI Range Assay Kit; Cis Bio cat #62AM6PEJ) that measures cAMP levels in the cell. The method is a competitive immunoassay between native cAMP produced by the cells and exogenous cAMP labeled with the dye d2. The tracer binding is visualized by a mAb anti-cAMP labeled with Cryptate. The specific signal (i.e. energy transfer) is inversely proportional to the concentration of cAMP in either a standard or an experimental sample. […]
# After 48 hours, the growth media was removed from the assay plate wells, and the cells were treated with 20 μL of the serially diluted compound in assay buffer for 30 minutes at 37° C. in a humidified environment (95% O2, 5% CO2). […] The plates were then incubated at room temperature and after 60 minutes, changes in the HTRF signal were read with an Envision 2104 multi-label plate reader using excitation of 330 nm and emissions of 615 and 665 nm. Raw data were converted to nM cAMP by interpolation from a cAMP standard curve (as described in the manufacturer's assay protocol) and the percent effect was determined relative to a saturating concentration of the full agonist GLP-1 (1 μM) included on each plate. […]
smiles,measurement,setting,value
C[C@]1(c2ccc(Cl)cn2)Oc2cccc(C3CCN(Cc4nc5ccc(C(=O)O[C@@H]6O[C@H](C(=O)O)[C@@H](O)[C@H](O)[C@H]6O)cc5n4C[C@@H]4CCO4)CC3)c2O1 [Metabolite 751b],metabolite of Compound 1 observed in human hepatocyte incubations,[1],observed
same,metabolite of Compound 1 observed in human hepatocyte incubations,[1]; listed as m/z 751b,most abundant metabolites
same,metabolite of Compound 1 observed in monkey hepatocyte incubations,[2],observed
same,detected in rat plasma,[3],observed
same,detected in rat plasma,[3]; listed as m/z 751b,detected
same,metabolite of Compound 1 observed in rat hepatocyte incubations,[4],observed
same,detected in rat bile,[5],observed
same,detected in rat bile,[5]; listed as m/z 751b,detected
same,metabolite of Compound 1 observed in mouse hepatocyte incubations,[6],observed
same,metabolite of Compound 1 observed in rabbit hepatocyte incubations,[7],observed
same,metabolite of Compound 1 observed in human Hepatopack system,[8],most abundant metabolites
same,EC50,[9],170 nM
